Source: patent US10947196B2, “Beta adrenergic agonist and methods of using the same” (CURASEN THERAPEUTICS, INC., priority 2019, dated 2021)
Where two headings read alike, the source gives them in different places.

How the values were obtained:
[1] = Hepatocyte stability (rat); format: in vitro ADME; conditions: 0.5×10^6 viable cells/mL
Method: 10 mM and 100 μM stock solutions of test compound(s) and a positive control were prepared in appropriate solvent (DMSO). In separate conical tubes, the 10 mM test compound and the positive control were diluted to 100 μM by combining 198 μL of 50% acetonitrile/50% water and 2 μL of 10 mM stock. The 100 μM test compound and the positive control were diluted to 30 μM by combining 140 μL of 50% acetonitrile/50% water and 60 μL of 100 μM stock solution. The 100 μM test compound and the positive control were diluted to 10 μM by combining 180 μL of 50% acetonitrile/50% water and 20 μL of 100 μM stock solution. The 100 μM test compound and the positive control were diluted to 3 μM by combining 194 μL of 50% acetonitrile/50% water and 6 μL of 100 μM stock solution.
Incubation medium (William's E Medium supplemented with GlutaMAX) and hepatocyte thawing medium was placed in a 37° C. water bath, and allowed to warm for at least 15 minutes prior to use. A vial of cryopreserved hepatocytes from storage was then removed, ensuring that the vial remains at cryogenic temperatures until thawing process ensues. Cells were thawed by placing the vial in a 37° C. water bath and gently shaking the vial for 2 minutes. After thawing was completed, the vial was sprayed with 70% ethanol and transferred to a biosafety cabinet.
A wide-bore pipette tip was used to transfer hepatocytes into 50 mL conical tube containing thawing medium. The 50 mL conical tube was placed into a centrifuge and spun at 100 g for 10 minutes. Upon completion of spin, the thawing medium was aspirated and the hepatocytes were resuspended in enough incubation medium to yield ˜1.5×10^6 cells/mL.
Using AOPI staining solution, cells were counted and the viable cell density was determined. Cells with poor viability (<75% viability) are not acceptable for use. […]
All calculations were carried out using Microsoft Excel. Peak areas were determined from extracted ion chromatograms. […]
The in vitro half-life (in vitro t1/2) was determined from the slope value: in vitro t1/2=0.693/k

[2] = Mouse pharmacokinetic studies; format: in vivo, male C57BL/6J mice; design: AUClast/D: unit not given here; conditions: PO 5 mg/kg; for AUC(0-inf) / AUC(0-t) / Cmax / Tmax / half-life / MRT inf: male, C57BL/6J; for MRT inf: read-out: MRTInf—obs
Method: The rat pharmacokinetics studies of exemplary compounds 03-3, 03-5, and 03-115 were conducted with male SD rats. These rats were typically about 6-8 weeks old, weighing 200 g to 300 g. Animals were fasted overnight and free access to food 4 hours after dosing. A required volume of vehicle was added to reach the target concentration of the test article and vehicle component to prepare for the dosing. The dosing vehicle was PEG400 or 30% PEG400 in saline for IV, or 0.5% methylcellulose in water for PO. For IV dosing, the animals were administered intravenously via tail vein. For PO dosing, the animals were administered via oral gavage. After dosing, blood sample was collected (˜0.2 mL per time point) through jugular vein or heart puncture. Blood of each sample was transferred into plastic micro centrifuge tubes containing EDTA-K2. Collection tubes with blood samples and anticoagulant were inverted several times for proper mixing of the tube contents and then placed on wet ice. The blood samples were centrifuged at 2000 g for 5 minutes at 4° C. to obtain plasma which was stored in a freezer at −75±15° C. prior to analysis. Samples were analyzed using LC-MS/MS. WinNonlin were used for pharmacokinetic calculations.
Mouse pharmacokinetics studies of exemplar compounds 03-3 and 03-5 were conducted substantially similarly to the rat pharmacokinetic studies, instead using male C57BL/6J mice. These mice were typically about 6-8 weeks old, weighing 20 g to 30 g. Animals were free access to food before dosing. Sample amount was ˜0.03 mL per time point and sample site was dorsal metatarsal or heart puncture.

Row | SMILES | Hepatocyte stability, Rat [1] | AUClast/D [2] | AUC—% Extrap—obs [2] [%] | F [2] [%] | AUC(0-inf) ([2]; plasma) [ng·h/mL] | AUC(0-t) ([2]; plasma) [ng·h/mL] | Cmax ([2]; plasma) [ng/mL] | Tmax ([2]; plasma) [h] | half-life ([2]; plasma) [h] | MRT inf ([2]; plasma) [h] | AUC(0-inf) ([2]; in vivo) [ng·h/mL] | Cmax ([2]; in vivo) [ng/mL] | Tmax ([2]; in vivo) [h] | MRT inf ([2]; in vivo) [h]
1 | CC(C)(C)NC[C@H](O)c1cccc(C(F)(F)F)n1 [Compound 03-3] | 4.59 μL/min/10^6 cells | 774 | 0.958 | 85.1 | 3910 | 3870 | 1020 | 0.25 | 3.78 | 4.08 | – | – | – | –
2 | CC(C)(C)NC[C@H](O)c1cccc(C#N)n1 [Compound 03-5, (S)-6-(2-(tert-butylamino)-1-hydroxyethyl)picolinonitrile] | 3.54-4.62 μL/min/10^6 cells | 1214 | 0.0845 | 163 | 6080 | 6070 | 1940 | 0.917 | 2.51 | 2.43 | – | – | – | –
3 | Cc1ncccc1[C@@H](O)CNC(C)(C)C [Compound 03-115] | 20.61 μL/min/10^6 cells | – | – | 112 | – | – | – | – | – | – | 3020 | 1750 | 0.5 | 1.8
